{"source": "patent US20250019652A1", "about": "“PRODUCTION METHOD FOR SHEET-LIKE RETINAL TISSUE” (RIKEN, priority 2021, published 2025)", "format_in_all_cases": "cell-based, human", "key": {"[1]": {"test_system": "single cells dispersed from KhES-1- and 1231A3-derived aggregates", "test": "Aggregate proliferation-promoting factor: aggregate area in suspension culture with Y-27632 (Example 2)", "details": "SAG 300 nM or CHIR99021 3 μM in addition to 10 μM Y-27632; Day 1, 7, 14", "method": "The aggregates of Day 20 (1231A3) and Day 27 (KhES-1) from initiation of the suspension culture prepared as in Example 1 were washed with PBS, and a neuronal cell dispersion solution (manufactured by FUJIFILM Wako Pure Chemical Corp.) was added. After incubation at 37° C., they were dispersed into single cells by pipetting. These cells were suspended in 100 μL of a serum-free medium containing 10 μM Y-27632 (FUJIFILM Wako Pure Chemical Corp.) so as to become 2 to 5×10^5 cells per well of a non-cell adhesive 96-well culture plate (trade name: PrimeSurface 96-well V-bottom plate, manufactured by Sumitomo Bakelite Co., Ltd.), and suspension-cultured at 37° C. and 5% CO2. […] The reformed states of the aggregates were observed under a bright field microscope and a fluorescence microscope (BZ-X810 manufactured by Keyence Corp.) on Day 1, Day 7, and Day 14 after suspension culture for aggregate reforming. The areas of the aggregates were measured in Image J. The results of the KhES-1-derived cells are shown in FIG. 6 (an average value from 12 […] measured). The results of the 1231A3-derived cells in which the reformed states of the aggregates of Day 1 after suspension culture were observed are shown in FIG. 7."}, "[2]": {"test_system": "KhES-1 Rx::Venus aggregates (NR) of Day 26", "test": "CD39 expression analysis with different concentrations of SAG at start of differentiation (Example 24)", "method": "The morphology of aggregates (NR) of Day 26 from initiation of the suspension culture prepared by adding (1) 0 nM, (2) 30 nM, or (3) 300 nM SAG at the start of differentiation was observed under a microscope.\nThe aggregates were dispersed into single cells using a neuronal cell dispersion solution, and FACS analysis was conducted as to the expression of CD39 and CXCR4 using anti-CD39-APC conjugate antibody (Miltenyi Biotec) and anti-CXCR4-APC conjugate antibody (Miltenyi Biotec). The percentage of an expressing cell population was measured using FACSCantoII (BD Biosciences), and analysis was conducted using FlowJo. These aggregates were fixed in 4% PFA, and sections were prepared and then subjected to staining using anti-ALDH1A1 antibody (R&D Systems, Inc.), anti-CoupTF1 antibody (Perseus Proteomics Inc. (PPMX)), anti-LHX2 antibody (manufactured by Merck Millipore), anti-Chx10 antibody (manufactured by Exalpha Biologicals Inc.), anti-Pax2 antibody (manufactured by Covance), and anti-NKX2.1 antibody (manufactured by Leica)."}, "[3]": {"test_system": "single cell suspension of dispersed retinal cells (KhES-1-derived)", "test": "Layer structure formation-promoting factor: reformed aggregates, immunostained sections (Example 3)", "details": "300 nM SAG in addition to 3 μM CHIR99021", "method": "The aggregates of Day 26 from initiation of the suspension culture prepared as in Example 1 were washed with PBS, and a neuronal cell dispersion solution (manufactured by FUJIFILM Wako Pure Chemical Corp.) was added. After incubation at 37° C., they were dispersed into single cells by pipetting. These cells were suspended in 100 μL of a serum-free medium so as to become 3.0×10^4 cells per well of a non-cell adhesive 96-well culture plate (trade name: PrimeSurface 96-well V-bottom plate, manufactured by Sumitomo Bakelite Co., Ltd.), and suspension-cultured at 37° C. and 5% CO2.\nThe aggregates of Day 15 (corresponding to Differentiation Day 41) and Day 28 (corresponding to Differentiation Day 54) after suspension culture for aggregate reforming were fixed in 4% PFA, and frozen sections were prepared. These frozen sections were subjected to immunostaining using DAPI and anti-Chx10 antibody (trade name: Anti CHX10 Antibody, Exalpha Biologicals Inc.), anti-β-catenin antibody (R&D Systems, Inc.), anti-collagen IV antibody (Abcam plc), anti-Zo-1 antibody (Invitrogen Corp.), anti-Ki67 antibody (Becton, Dickinson and Company), anti-Pax6 antibody (BioLegend, Inc.), anti-RxR-γ (RxRg) antibody (Spring Bioscience Corp.), anti-CRX antibody (Abnova Corp.), anti-NRL antibody (R&D Systems, Inc.), anti-recoverin antibody (manufactured by Proteintech Group, Inc.), anti-Islet-1 antibody (Developmental Studies Hybridoma Bank (DSHB)), anti-GS antibody (Sigma-Aldrich Co., LLC), anti-Brn3 antibody (Santa Cruz Biotechnology), and anti-calretinin antibody (R&D Systems, Inc.).\nThese immunostained sections were observed under a bright field microscope and a fluorescence microscope (BZ-X810 manufactured by Keyence Corp.) and a confocal laser scanning fluorescence microscope (SP-8 manufactured by Leica), and the results are shown in FIGS. 11 to 20. […] From FIGS. 19 and 20, it was confirmed that RxR-Y(RxRg)-positive and CRX-positive cone progenitor cells and recoverin-positive and CRX-positive photoreceptor progenitor cells were differentiated, and the differentiation of Islet-1-positive and Brn3-positive retinal ganglion cells and calretinin-positive amacrine cells was also confirmed."}, "[4]": {"test_system": "Rx::Venus-sorted cells (KhES-1-derived NR, Day 25)", "test": "Search of factor that maintains property of retina at preparation into sheet again (Example 18)", "details": "compared with PBS control; 10 days after seeding", "method": "The aggregates (NR) of Day 25 from initiation of the suspension culture prepared in Example 1 were washed with PBS, and a neuronal cell dispersion solution (manufactured by FUJIFILM Wako Pure Chemical Corp.) was added. After incubation at 37° C., they were dispersed into single cells by pipetting, and sorting was carried out with Rx::Venus as an index using Cell sorter ARIAII (Becton, Dickinson and Company).\n3 days after seeding, the medium was similarly replaced so as to maintain the concentrations of the low-molecular compounds or the proteins described in Tables 1 and 2. […] 10 days after seeding, fixation was performed in 4% PFA, and the evaluation of the cells after sorting was conducted with Rx::Venus as an index under a fluorescence microscope (BZ-X810 manufactured by Keyence Corp.)."}, "[5]": {"test_system": "Rx::Venus-positive cells (KhES-1-derived)", "test": "Maintenance culture of retinal cell in Rx::Venus strain (Example 13)", "details": "20 ng/ml continuously added; after 34 days", "method": "The aggregates of Day 31 from initiation of the suspension culture prepared as in Example 1 were washed with PBS, and a neuronal cell dispersion solution (manufactured by FUJIFILM Wako Pure Chemical Corp.) was added. After incubation at 37° C., they were dispersed into single cells by pipetting.\nAfter 34 days, cell sheets were fixed in 4% PFA, and the nuclei were stained using DAPI. Observation was made focusing on the areas of Rx::Venus-positive cells, and the state of maintenance of retinal cells was studied."}, "[6]": {"test_system": "retinal progenitor cells dispersed into single cells (KhES-1- and 1231A3-derived aggregates)", "test": "Search of aggregate reforming factor: suspension culture of dispersed retinal cells (Example 1)", "details": "added at cell seeding; Y-27632 10 μM or 20 μM; Day 1 to Day 2 of suspension culture", "method": "Human ES cells (KhES-1 strain (Non Patent Literature 3)) and human iPS cells (1231A3 strain, Kyoto University) genetically engineered so as to have Rx::Venus reporter gene were cultured under feeder-free conditions in accordance with the method described in “Scientific Reports, 4, 3594 (2014)”. As a feeder-free medium, StemFit medium (trade name: AK03N, manufactured by Ajinomoto Co., Inc.) was used, and as a scaffold as an alternative to feeder cells, Laminin511-E8 (trade name, manufactured by Nippi, Inc.) was used.\nSpecific operation of maintenance culture for human ES and human iPS cells (human ES/iPS cells) was performed as follows: First, human ES/iPS cells that reached sub-confluency (state where about 60% of the culture area was covered by cells) were washed with PBS and separated into single cells by use of TrypLE Select (trade name, manufactured by Life Technologies). In this context, the dispersion into single cells refers to performing dispersion so as to become single cells, and a cell population dispersed into single cells is capable of containing a mass of 2 to 50 cells, in addition to single cells. Then, the separated human ES single cells were seeded in plastic culture dishes coated with Laminin 511-E8 and cultured under feeder-free conditions in StemFit medium in the presence of Y-27632 (ROCK inhibitor, 10 μM). […]"}, "[7]": {"test_system": "aggregates (NR), KhES-1-derived neural retinal tissues", "test": "Study on enhancement in CD39 expression, FACS (Example 25)", "details": "added Day 17 to Day 25; DMSO control", "method": "For aggregates (NR) prepared by adding 300 nM SAG at the start of differentiation (dd0), 10 neural retinal tissues were transferred to low adhesive 60-mm Petri dish for suspension culture (manufactured by Sumitomo Bakelite Co., Ltd.) on Day 17 from initiation of the suspension culture. 1 mM or 0.2 mM adenosine (A2A receptor agonist, manufactured by Sigma-Aldrich Co. LLC), 1 mM, 0.2 mM, or 0.04 mM AMP-PNP (manufactured by Tocris Bioscience), 5 mM, 1 mM, 0.2 mM, or 0.04 mM ATP disodium salt (manufactured by Tocris Bioscience), and 1μ, 0.2μ, or 0.04μ M CGS 21680 (Adenosine A2A Receptor Agonist, manufactured by Tocris Bioscience) were added into 4 mL of NucT0 medium. Culture was performed up to Day 25 from initiation of the suspension culture. Change in expression of CD39 and CXCR4 was stained using Mouse IgG1-APC conjugate antibody (Miltenyi Biotec), anti-CD39-BV421 conjugate antibody (BD Biosciences) and anti-CXCR4-APC conjugate antibody (Miltenyi Biotec) and measured using FACSCantoII (BD Biosciences), and analysis was conducted using FlowJo. As a control, a DMSO addition group was established."}}, "data": [{"molecule": "CNC1CCC(N(Cc2cccc(-c3ccncc3)c2)C(=O)c2sc3ccccc3c2Cl)CC1", "note": "(centres unmarked) [SAG]", "values": [{"measurement": "size of reformed aggregates versus only Y-27632", "setting": "[1]", "value": "larger aggregates were reformed"}, {"measurement": "morphology of aggregates", "setting": "[2]; 0 nM and 30 nM SAG compared with 300 nM SAG at dd0, Day 26", "value": "aggregates were larger and a layer structure was clearer"}, {"measurement": "expression of CD39 (FACS)", "setting": "[2]; 300 nM SAG at dd0", "value": "CD39 was expressed"}, {"measurement": "expression of CXCR4 (FACS)", "setting": "[2]; 300 nM SAG at dd0", "value": "low expression of CXCR4 was observed"}, {"measurement": "expression of dorsal marker ALDH1A1", "setting": "[2]; addition of SAG on dd0", "value": "Decrease in expression of a dorsal marker ALDH1A1"}, {"measurement": "expression of ventral marker CoupTF1", "setting": "[2]; addition of SAG on dd0", "value": "increase in expression of a ventral marker CoupTF1"}, {"measurement": "size of aggregates", "setting": "[3]", "value": "aggregates were larger"}]}, {"molecule": "FGF2: fibroblast growth factor, FGF signaling pathway agonist", "values": [{"measurement": "expression intensity of Rx::Venus", "setting": "[4]", "value": "high expression intensity of Rx::Venus"}, {"measurement": "maintenance of Rx::Venus-positive cells", "setting": "[5]", "value": "Rx::Venus-positive cells were widely maintained"}]}, {"molecule": "C[C@@H](N)[C@H]1CC[C@H](C(=O)Nc2ccncc2)CC1", "note": "[Y-27632]", "values": [{"measurement": "early aggregate reforming", "setting": "[6]", "value": "aggregates were reformed from Day 1 to Day 2"}]}, {"molecule": "EGF: growth factor added at 20 ng/ml", "values": [{"measurement": "maintenance of Rx::Venus-positive cells", "setting": "[5]", "value": "Rx::Venus-positive cells were widely maintained"}]}, {"molecule": "Nc1ncnc2c1ncn2[C@@H]1O[C@H](COP(=O)(O)OP(=O)([O-])OP(=O)([O-])O)[C@@H](O)[C@H]1O.[Na+].[Na+]", "note": "[ATP]", "values": [{"measurement": "expression of CD39 (FACS)", "setting": "[7]", "value": "enhancing the expression of CD39"}, {"measurement": "expression of CXCR4 (FACS)", "setting": "[7]", "value": "decreasing the expression of CXCR4"}]}, {"molecule": "O=C(Nc1cccc2cccnc12)c1ccc(N2C(=O)[C@@H]3[C@H](C2=O)[C@@H]2C=C[C@H]3C2)cc1", "note": "[IWR1 endo, 4-[(3aR,4S,7R,7aS)-1,3,3a,4,7,7a-hexahydro-1,3-dioxo-4,7-methano-2H-isoindol-2-yl]-N-8-quinolinyl-benzamide, reference compound]", "values": [{"measurement": "expression intensity of Rx::Venus", "setting": "[4]", "value": "high expression intensity of Rx::Venus"}]}]}
